Holding throughout (test): NCI anticancer screen, dose series, 48 h
Assay [1] concerns PC-3 prostate.
For assay [2], the system named is SK-OV-3 ovarian.
The subject of assay [3] is HT29 colon.
Assay [4] concerns CCRF-CEM leukemia.
Assay [5] concerns NCI/ADR-RES ovarian.
Assay [6] has as its system NCI-H522 lung.
The subject of assay [7] is SF-295 CNS.
Assay [8] concerns SN12C renal.

SMILES strings stand for the structures.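 Results reflect a 48-hour exposure of cells in 96-well plates to compound at five concentrations. GI50 marks 50% less growth. TGI marks complete inhibition of growth.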

Consider `Cc1cccc2c(N)c3cccc(C(=O)NCC[N+](C)(C)Cc4sc(N5CCOCC5)nc4[N+](=O)[O-])c3nc12`, for which the TGI in assay [1] worked out at 16.8 µM; in assay [2], 6.19 µM; in assay [3], 2.74 µM; in assay [4], 26.9 µM; in assay [5], 23.3 µM; in assay [6] it was 4.54 µM. The figures for the TGI in assay [7] and in assay [8] were 14.3 µM and > 100 µM, respectively.

With `Oc1c(I)cc(I)cc1CNCCCN(Cc1ccccn1)Cc1ccccn1`, the GI50 in assay [1] is 1.17 µM; in assay [2], 1.01 µM; in assay [3], 1.74 µM; in assay [4] it was 1.54 µM; in assay [5], 1.44 µM; in assay [6], 1.34 µM. Further, the GI50 in assay [7] was 0.885 µM; in assay [8] it was 0.99 µM. Further, the TGI in assay [1] came out at 3.02 µM; in assay [2], 2.18 µM; in assay [3], 10.2 µM; in assay [4] it was 50 µM; in assay [5] it was 4.29 µM; in assay [6], 4.48 µM. In addition, the TGI in assay [7] stood at 1.74 µM; in assay [8], 2.12 µM.

For `C=C(C)CC1=C(C(=S)NCCO[Si](C)(C)C(C)(C)C)C(OCC)(OCC)C1=O`, the TGI was 29.4 µM in assay [1]; 41.4 µM in assay [2]; > 100 µM in assay [3]; > 100 µM in assay [4]; > 100 µM in assay [5]; 29 µM in assay [6]. The TGI in assay [7] worked out at 33.1 µM; in assay [8], 42.2 µM.

`CC(C)OC(=O)c1ccc(CCC2=CC(=O)C(Br)=CC2=O)cc1`: the TGI in assay [1] was 31.8 µM; in assay [2] it was > 100 µM; in assay [3], 31.8 µM; in assay [4], 5.06 µM; in assay [5], 37.4 µM; in assay [6], 19.3 µM. Moreover, the TGI in assay [7] is 39.6 µM; in assay [8], 31.1 µM.

For `CN(N)C(=O)NCCCl`, the TGI was > 100 µM in assay [1]; > 100 µM in assay [2]; > 100 µM in assay [3]; > 100 µM in assay [4]; 0.31 µM in assay [5]; > 100 µM in assay [6]. In addition, the TGI in assay [7] and in assay [8] was > 100 µM in each case.

For the molecule `[N-]=[N+]=C1CNC(=O)NC1=O`, the TGI in assay [1], in assay [2], in assay [3], in assay [4], in assay [5] and in assay [6] was > 100 µM in each case. Moreover, the TGI in assay [7] and in assay [8] was > 100 µM throughout.

As for `CC1NOC(NS(=O)(=O)c2ccc(N=Nc3c(O)c(C(=O)O)cc4ccccc34)cc2)C1C` (configuration not stated), the TGI in assay [1], in assay [2], in assay [3], in assay [4], in assay [5] and in assay [6] was > 100 µM each time. Also, the TGI in assay [7] was > 100 µM.

In the case of `Cc1ccc(S(=O)(=Nc2ccccc2)C(C(C)C)C(C)(C)Cl)cc1` (configuration not stated), the TGI in assay [1], in assay [2], in assay [3], in assay [4], in assay [5] and in assay [6] was > 50 µM throughout. Also, the TGI in assay [7] and in assay [8] was > 50 µM in each case.

For the molecule `Cc1ccccc1NC(=S)N=Nc1c(O)[nH]c2ccccc12`, the TGI in assay [1], in assay [2], in assay [3], in assay [4], in assay [5] and in assay [6] was > 100 µM in each case. Also, the TGI in assay [7] and in assay [8] was > 100 µM throughout.

As for `Cc1cc2nc3n(c2cc1C)C(c1c(F)cccc1F)SC3` (configuration not stated), the TGI in assay [1] was > 100 µM; in assay [2], > 100 µM; in assay [3] it was 38.9 µM; in assay [4], 64.3 µM; in assay [5] it was 34.6 µM; in assay [6], 44.1 µM. Also, the TGI in assay [7] was 54.2 µM; in assay [8], 41.9 µM.

For `O=[N+]([O-])c1cccc2nc3ccccc3c(NCCC[N+]3([O-])CCCCC3)c12`, the TGI in assay [1] is 0.649 µM; in assay [2], 4.58 µM; in assay [3] it was 6.37 µM; in assay [4], > 36.5 µM; in assay [5] it was > 100 µM; in assay [6] it was 0.345 µM. The results for the TGI in assay [7] and in assay [8] were 12.6 µM and 1.55 µM, respectively.

In the case of `C=C1c2nc3ccccc3n2C=C(c2ccc(Cl)cc2)N1c1ccccc1`, the TGI is > 100 µM in assay [1]; 34.7 µM in assay [2]; > 100 µM in assay [4]; 29.8 µM in assay [5]; 18.5 µM in assay [6]; 24 µM in assay [7]. The TGI in assay [8] is > 100 µM.

With `CC[C@@]1(O)C(=O)OCc2c1cc1n(c2=O)Cc2c-1nc1ccccc1c2/C=N\NC(=O)C(N)CS` (some centres not stated), the TGI was > 100 µM in assay [1]; > 100 µM in assay [2]; > 100 µM in assay [3]; > 45.2 µM in assay [5]; 25.9 µM in assay [6]; > 33.9 µM in assay [7]. In addition, the TGI in assay [8] was > 22.8 µM.

With `C=C1C(=O)[C@]23[C@H](O)[C@H]1CC[C@H]2[C@@]12CO[C@@]3(O)C[C@@H]1C(C)(C)CC[C@@H]2O`, the TGI in assay [1] is > 25 µM; in assay [3], > 25 µM; in assay [4], > 25 µM; in assay [5] it was > 25 µM; in assay [6], 8.8 µM; in assay [7] it was > 25 µM. The TGI in assay [8] is > 25 µM.

Take `O=c1c2c([nH]c3cc4c(cc13)OCO4)-c1ccccc1CCC2`: the TGI in assay [1], in assay [2], in assay [3], in assay [4], in assay [5] and in assay [6] was > 50 µM throughout. Besides, the TGI in assay [7] and in assay [8] was > 50 µM each time.

Consider `COc1cc2c3c(cc(Cl)nc3c1OC)C(O)(CC(C)=O)C(=O)N2` (configuration not stated), for which the TGI in assay [1] was > 56.4 µM; in assay [2], > 72.8 µM; in assay [3], > 61.9 µM; in assay [4], > 45.4 µM; in assay [5], > 63.9 µM; in assay [6], 26 µM. For the same molecule, the TGI in assay [7] was > 100 µM; in assay [8] it was 36.1 µM.

Values taken from PubChem BioAssay (NCI).
